# Measured values as given in the supplement of paper PMC10307832.
# Compound: N[C@@H]1CCCN(c2c(/C=C3\SC(=O)NC3=O)cccc2-c2ccccc2)C1 [AZD1208] + Cc1nc(Nc2ncc(C(=O)Nc3c(C)cccc3Cl)s2)cc(N2CCN(CCO)CC2)n1 [Dasatinib] (partner 0.075 µM)
# Assay: relative viability (nuclei count vs DMSO), 5 days (fraction); higher = more cells survive
# Settings: first compound 0.08 µM
# Procedure, shortened: (§1)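 Nuclei were stained with Hoechst during a one-step fixation (final 0.05% Triton X-100, 1% formaldehyde, 1 ug/ml Hoechst) carried out 5 days after dosing, then counted on 4× images. The cells, lung cancer lines in 1536-well plates, had been dosed by pin tool the day after seeding with one drug alone or a fixed anchor-drug dose plus five library-drug doses (not always all listed) in √10 steps. Relative viability is the nuclei count in treated wells divided by that in vehicle wells, and each value is the median of duplicate plates.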
row,Cell Line,relative viability
1,NCI-H522,0.828
2,NCI-H1623,0.633
3,NCI-H838,0.329
4,NCI-H1650,0.267
5,NCI-H2009,0.257
6,NCI-H1993,0.507
7,PC-14,0.268
8,LCLC-103H,0.448
9,NCI-H596,0.545
10,NCI-H2228,0.476
11,EMC-BAC-2,0.301
12,NCI-H2087,0.763
13,HCC-366,0.625
14,NCI-H1666,0.843
15,NCI-H647,0.119
16,LK-2,0.273
17,NCI-H2126,0.554
18,NCI-H2342,0.284
19,SK-MES-1,0.336
20,NCI-H2170,0.615
21,SW 900,0.456
22,NCI-H727,0.315
23,NCI-H1395,0.453
24,NCI-H1792,0.722
25,NCI-H1793,0.333
26,NCI-H1563,0.465
27,NCI-H1944,0.196
28,ABC-1,0.667
29,NCI-H358,0.138

# Same assay, conditions: first compound 0.253 µM
row,Cell Line,relative viability
1,NCI-H522,0.774
2,NCI-H1623,0.514
3,NCI-H838,0.365
4,NCI-H1650,0.311
5,NCI-H2009,0.267
6,NCI-H1993,0.519
7,PC-14,0.257
8,LCLC-103H,0.501
9,NCI-H596,0.586
10,NCI-H2228,0.521
11,EMC-BAC-2,0.319
12,NCI-H2087,0.824
13,HCC-366,0.64
14,NCI-H1666,0.829
15,NCI-H647,0.226
16,LK-2,0.224
17,NCI-H2126,0.453
18,NCI-H2342,0.354
19,SK-MES-1,0.336
20,NCI-H2170,0.542
21,SW 900,0.693
22,NCI-H727,0.322
23,NCI-H1395,0.373
24,NCI-H1792,0.595
25,NCI-H1793,0.347
26,NCI-H1563,0.433
27,NCI-H1944,0.178
28,ABC-1,0.509
29,NCI-H358,0.142

# Same assay, conditions: first compound 0.8 µM
row,Cell Line,relative viability
1,NCI-H522,0.911
2,NCI-H1623,0.484
3,NCI-H838,0.272
4,NCI-H1650,0.255
5,NCI-H2009,0.279
6,NCI-H1993,0.54
7,PC-14,0.201
8,LCLC-103H,0.421
9,NCI-H596,0.524
10,NCI-H2228,0.398
11,EMC-BAC-2,0.321
12,NCI-H2087,0.641
13,HCC-366,0.479
14,NCI-H1666,0.828
15,NCI-H647,0.106
16,LK-2,0.17
17,NCI-H2126,0.475
18,NCI-H2342,0.28
19,SK-MES-1,0.284
20,NCI-H2170,0.478
21,SW 900,0.427
22,NCI-H727,0.315
23,NCI-H1395,0.36
24,NCI-H1792,0.647
25,NCI-H1793,0.358
26,NCI-H1563,0.421
27,NCI-H1944,0.175
28,ABC-1,0.522
29,NCI-H358,0.139

# Same assay, conditions: first compound 2.53 µM
row,Cell Line,relative viability
1,NCI-H522,0.78
2,NCI-H1623,0.438
3,NCI-H838,0.311
4,NCI-H1650,0.261
5,NCI-H2009,0.249
6,NCI-H1993,0.536
7,PC-14,0.198
8,LCLC-103H,0.448
9,NCI-H596,0.524
10,NCI-H2228,0.43
11,EMC-BAC-2,0.32
12,NCI-H2087,0.573
13,HCC-366,0.493
14,NCI-H1666,0.763
15,NCI-H647,0.132
16,LK-2,0.167
17,NCI-H2126,0.436
18,NCI-H2342,0.3
19,SK-MES-1,0.341
20,NCI-H2170,0.485
21,SW 900,0.547
22,NCI-H727,0.313
23,NCI-H1395,0.38
24,NCI-H1792,0.675
25,NCI-H1793,0.427
26,NCI-H1563,0.447
27,NCI-H1944,0.193
28,ABC-1,0.69
29,NCI-H358,0.116

# Same assay, conditions: first compound 8 µM
row,Cell Line,relative viability
1,NCI-H522,0.717
2,NCI-H1623,0.632
3,NCI-H838,0.274
4,NCI-H1650,0.296
5,NCI-H2009,0.304
6,NCI-H1993,0.459
7,PC-14,0.169
8,LCLC-103H,0.33
9,NCI-H596,0.462
10,NCI-H2228,0.342
11,EMC-BAC-2,0.264
12,NCI-H2087,0.715
13,HCC-366,0.287
14,NCI-H1666,0.834
15,NCI-H647,0.169
16,LK-2,0.178
17,NCI-H2126,0.394
18,NCI-H2342,0.267
19,SK-MES-1,0.306
20,NCI-H2170,0.406
21,SW 900,0.367
22,NCI-H727,0.314
23,NCI-H1395,0.356
24,NCI-H1792,0.55
25,NCI-H1793,0.298
26,NCI-H1563,0.395
27,NCI-H1944,0.16
28,ABC-1,0.563
29,NCI-H358,0.142

# Compound: CN1CCN(CC1)C2=CC(=C(C=C2)NC3=NC(=C(S3)C(=O)C4=C(C=CC=C4Cl)Cl)N)OC [XMD14-99] + Nc1nc2[nH]cc(CCc3ccc(C(=O)N[C@@H](CCC(=O)O)C(=O)O)cc3)c2c(=O)[nH]1 [Pemetrexed] (partner 0.2 µM)
# Assay: as above
# Settings: first compound 0.08 µM
# Procedure, shortened: as §1
row,Cell Line,relative viability
1,NCI-H522,0.867
2,NCI-H838,0.253
3,NCI-H1650,0.387
4,NCI-H2009,1.07
5,NCI-H1993,0.708
6,PC-14,0.148
7,LCLC-103H,0.467
8,NCI-H596,0.465
9,NCI-H2228,0.324
10,EMC-BAC-2,0.437
11,NCI-H2087,0.681
12,HCC-366,0.219
13,NCI-H1666,0.853
14,NCI-H647,0.147
15,LK-2,0.219
16,NCI-H2126,0.634
17,NCI-H2342,0.785
18,SK-MES-1,0.939
19,NCI-H2170,0.247
20,HCC-44,0.648
21,SW 900,0.518
22,NCI-H1648,0.61
23,NCI-H1395,0.838
24,NCI-H1792,1.03
25,NCI-H1793,0.947
26,NCI-H1563,0.884
27,NCI-H1944,0.595
28,NCI-H358,0.16

# Same assay, conditions: first compound 0.8 µM
row,Cell Line,relative viability
1,NCI-H522,1.04
2,NCI-H838,0.226
3,NCI-H1650,0.369
4,NCI-H2009,1
5,NCI-H1993,0.541
6,PC-14,0.138
7,LCLC-103H,0.475
8,NCI-H596,0.48
9,NCI-H2228,0.319
10,EMC-BAC-2,0.449
11,NCI-H2087,0.644
12,HCC-366,0.18
13,NCI-H1666,0.857
14,NCI-H647,0.14
15,LK-2,0.247
16,NCI-H2126,0.681
17,NCI-H2342,0.748
18,SK-MES-1,0.833
19,NCI-H2170,0.266
20,HCC-44,0.65
21,SW 900,0.476
22,NCI-H1648,0.564
23,NCI-H1395,0.953
24,NCI-H1792,0.72
25,NCI-H1793,1
26,NCI-H1563,0.937
27,NCI-H1944,0.605
28,NCI-H358,0.142

# Same assay, conditions: first compound 2.53 µM
row,Cell Line,relative viability
1,NCI-H522,1.14
2,NCI-H838,0.255
3,NCI-H1650,0.359
4,NCI-H2009,0.947
5,NCI-H1993,0.524
6,PC-14,0.115
7,LCLC-103H,0.426
8,NCI-H596,0.447
9,NCI-H2228,0.398
10,EMC-BAC-2,0.403
11,NCI-H2087,0.597
12,HCC-366,0.18
13,NCI-H1666,0.781
14,NCI-H647,0.209
15,LK-2,0.258
16,NCI-H2126,0.677
17,NCI-H2342,0.815
18,SK-MES-1,0.882
19,NCI-H2170,0.251
20,HCC-44,0.63
21,SW 900,0.461
22,NCI-H1648,0.554
23,NCI-H1395,0.904
24,NCI-H1792,0.68
25,NCI-H1793,0.83
26,NCI-H1563,0.787
27,NCI-H1944,0.602
28,NCI-H358,0.178

# Same assay, conditions: first compound 8 µM
row,Cell Line,relative viability
1,NCI-H522,1.08
2,NCI-H838,0.198
3,NCI-H1650,0.321
4,NCI-H2009,0.997
5,NCI-H1993,0.448
6,PC-14,0.131
7,LCLC-103H,0.468
8,NCI-H596,0.494
9,NCI-H2228,0.257
10,EMC-BAC-2,0.368
11,NCI-H2087,0.611
12,HCC-366,0.128
13,NCI-H1666,0.764
14,NCI-H647,0.141
15,LK-2,0.119
16,NCI-H2126,0.537
17,NCI-H2342,0.762
18,SK-MES-1,0.659
19,NCI-H2170,0.247
20,HCC-44,0.627
21,SW 900,0.471
22,NCI-H1648,0.542
23,NCI-H1395,0.729
24,NCI-H1792,0.529
25,NCI-H1793,0.631
26,NCI-H1563,0.751
27,NCI-H1944,0.481
28,NCI-H358,0.146

# Compound: N[C@@H]1CCCN(c2c(/C=C3\SC(=O)NC3=O)cccc2-c2ccccc2)C1 [AZD1208] + CC(C)C[C@H](NC(=O)[C@H](Cc1ccccc1)NC(=O)c1cnccn1)B(O)O [Bortezomib] (partner 0.002 µM)
# Assay: as above
# Settings: first compound 0.08 µM
# Procedure, shortened: as §1
row,Cell Line,relative viability
1,NCI-H838,0.873
2,NCI-H1650,0.201
3,EBC-1,0.597
